Data as given in patent US7947280B2 (priority 2003, dated 2011).
Entries after “also recorded” stand apart in the source; their conditions may differ.

Legend:
[1] = system: NFκB, NFAT, AP-1 and SRE reporter constructs; experiment: Luciferase reporter assays of AngII nuclear signaling in HEK-293 cells; assay type: cell-based; conditions: HEK-293 cells co-transfected with AT1; AngII stimulation
Text: cDNA Constructs APJ expression construct was purchased from cDNA.org. AT1R construct was obtained from Dr. Marc Caron. AT1R transcript was inserted into a pEGFP-N1 vector (Clonetech). The NF-kB and SRE luciferase reporter constructs were obtained from BD Biosciences.
(§1) Cells were immediately lysed.

[2] = system: AT1R and APJ heterodimerization; experiment: AT1R-APJ receptor heterodimerization by immunoprecipitation; assay type: cell-based; conditions: AngII, 1 and 6 hours of treatment; co-transfected cells
Protocol: as §1
Immunoprecipitation and Western Blotting Immunoprecipitation was performed as previously described (REF). In brief, cells were lysed using 10× Cell Lysis Buffer (Cell Signaling Technologies CITY). Lysates were precleared with protein G and immunoprecipitation was performed with the respective antibodies at concentration of 1 mg/mL for 24 hrs at 4C. Protein G agarose was added and incubated for additional 2 hours. Western blotting on SDS-PAGE gels were performed as previously described, and the bands were visualized using the enhanced chemiluminescence system (Amersham Biosciences).

ApoE-KO mice [3] = experiment: AngII induced abdominal aortic aneurysm formation model; assay type: in vivo, mouse
Protocol: (§2) Animals. Mice were maintained in temperature-controlled (20° C. to 22° C.) environment with a 12-hour light-dark cycle. Sterile water and standard chow diet were available ad libitum. All mice were C57BL/6J ApoE-KO male mice (Jackson Laboratories, Bar Harbor, […].) between the ages of 8-12 weeks. […] Animal procedures were carried out in accordance with the Institutional Review Board Guidelines at Stanford University.
Abdominal aortic aneurysm formation, sudden death and vein graft procedure. […] Abdominal aortic aneurysm was defined as ≧50% enlargement of the maximal abdominal aorta diameter. Mice that were found dead without any preceding signs of suffering were defined as sudden death.

ApoE-KO mice [4] = experiment: Atherosclerotic lesion analysis in ApoE-KO mice; assay type: in vivo, mouse
Protocol: Animals. Mice were maintained in temperature-controlled (20° C. to 22° C.) environment with a 12-hour light-dark cycle. […] All mice were C57BL/6J ApoE-KO male mice (Jackson Laboratories, Bar Harbor, […].) between the ages of 8-12 weeks. […] Animal procedures were carried out in accordance with the Institutional Review Board Guidelines at Stanford University.
Tissue preparation, histology and lesion quantification. Mice were euthanized 28 days following implantation of osmotic mini-pumps. The thoracic cage was removed and the animal perfused with phosphate buffered saline solution (PBS) for 2 minutes. The entire aorta and vein graft were exposed and the periadventitial tissue and scar tissue dissected and removed. Subsequently mice were perfusion fixed in situ with 4% phosphate-buffered paraformaldehyde. In some animals aorta and lung were removed fresh for biochemical assays.
Atherosclerotic Lesion Analysis Atherosclerosis lesion area was determined as described previously. Briefly, the arterial tree was perfused with PBS (pH 7.3) and then perfusion fixed with phosphate-buffered paraformaldehyde (3%, pH 7.3). The heart and full length of the aorta-to-iliac bifurcation was exposed and dissected carefully from any surrounding tissues. Aortas were then opened along the ventral midline and dissected free of the animal and pinned out flat, intimal side up, onto black wax. Aortic images were captured with a digital camera (DMC1) mounted on a Leica MZ6 stereomicroscope and analyzed using Fovea Pro (Reindeer Graphics, Asheville, N.C.). Percent lesion area was calculated as total lesion area divided by total surface area.

AT1R = molecular target: T1, AT1R (Rattus norvegicus, UniProt P25095); experiment: Competitive ligand binding with FAM-labeled AngII in HEK-293 cells; conditions: unlabeled ligand 100 nM; HEK-293 cells transfected with AT1R
T1 construct: expressed in transfected cells; host or cells: HEK-293
T1 sequence (P25095 1-359): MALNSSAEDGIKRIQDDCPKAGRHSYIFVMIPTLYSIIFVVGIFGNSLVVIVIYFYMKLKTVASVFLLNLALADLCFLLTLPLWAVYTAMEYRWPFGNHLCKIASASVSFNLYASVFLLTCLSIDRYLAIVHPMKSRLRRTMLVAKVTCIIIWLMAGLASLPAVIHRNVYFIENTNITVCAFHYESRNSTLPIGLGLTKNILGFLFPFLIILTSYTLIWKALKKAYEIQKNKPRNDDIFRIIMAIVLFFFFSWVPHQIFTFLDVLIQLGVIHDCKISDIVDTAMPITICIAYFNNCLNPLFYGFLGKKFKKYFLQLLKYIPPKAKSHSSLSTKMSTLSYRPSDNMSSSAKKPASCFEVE

APJ [5] = molecular target: T2, APJ (Homo sapiens, UniProt P35414); conditions: cited from earlier work
T2 sequence (P35414 1-380): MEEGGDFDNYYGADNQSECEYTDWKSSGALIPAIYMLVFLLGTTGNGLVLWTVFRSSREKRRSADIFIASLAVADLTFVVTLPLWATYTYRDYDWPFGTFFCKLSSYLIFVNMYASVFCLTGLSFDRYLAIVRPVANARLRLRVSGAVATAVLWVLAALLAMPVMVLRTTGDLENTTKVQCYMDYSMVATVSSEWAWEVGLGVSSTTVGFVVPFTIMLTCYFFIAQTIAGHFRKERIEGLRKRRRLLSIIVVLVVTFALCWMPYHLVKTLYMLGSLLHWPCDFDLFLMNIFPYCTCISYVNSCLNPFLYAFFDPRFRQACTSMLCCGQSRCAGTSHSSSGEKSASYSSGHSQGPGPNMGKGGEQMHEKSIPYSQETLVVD

[6] = system: superoxide production in aortic tissue of apoE knockout mice; experiment: Lucigenin-enhanced chemiluminescence of aortic superoxide; assay type: in vivo, mouse
Protocol: Lucigenin-enhanced chemiluminescence. Total aortic superoxide was measured by lucigenin-enhanced chemiluminescence as described previously. Aortas were harvested flushed with Krebs-HEPES buffer, opened longitudinally and divided into halves. Vessels were gassed with 95% oxygen/5% carbon dioxide in warmed Krebs-HEPES buffer for 30 minutes before measurements of chemiluminescence in a luminometer (manufacturer, location) using 20 μmol/L lucigenin. One half of each vessel was incubated in L-NAME (1 mmol/L). After measuring baseline readings for 4 minutes, samples were equilibrated and dark adapted for 5 mins, and chemiluminescence was recorded for 10 minutes. Recordings were performed blinded to the samples identity. Results were expressed as counts per second per milligram of tissue dry weight.

ApoE-KO mice [7] = experiment: Vein graft neointimal hyperplasia model; assay type: in vivo, mouse; conditions: AngII infusion
Protocol: as §2

C57B/16 mice = experiment: Magnetic resonance imaging after intraperitoneal apelin-12 injection; assay type: in vivo, mouse; conditions: post apelin-12 300 μg/kg intraperitoneal, one hour prior to scanning; n=9
Protocol: Magnetic resonance imaging. […] Platinum needle ECG leads were inserted subcutaneously. Respiration was monitored by means of a pneumatic pillow sensor positioned against the abdomen. Mouse body temperature was maintained during scanning at 37° C. by a flow of heated air thermostatically controlled by a rectal temperature probe. Magnetic resonance images were acquired on a 4.7T Oxford magnet controlled by a Varian Inova console (Varian, Palo Alto, Calif.) using a transmit-receive, quadrature, volume coil with an inner diameter of 3.5 cm. Image acquisition was gated to respiration and to the ECG R wave (SA Instruments, Stony Brook, N.Y.). Coronal and sagittal scout images led to the acquisition of multiple contiguous 1 mm thick, short axis slices orthogonal to the interventricular septum. […] Planimetry measurements of end diastolic and end systolic dimension were derived offline from short axis views of the left ventricle at the level of the papillary muscles using ImageJ software (National Institutes of Health, Bethesda, Md.). Ejection fraction was calculated as [[…]. Data Analysis. […] Exact p values are reported for all comparisons.

APJ [8] = molecular target: T2, APJ; conditions: cited from earlier work; remark: listed apart in the source
[9] = system: superoxide production in aortic sections; experiment: Dihydroethidium oxidative fluorescence microtopography; assay type: in vivo, mouse
Protocol: Oxidative fluorescent microtopography. Superoxide was detected in the layers of the vessel wall using fluorescent probe dihydroethidium as described previously. Fresh segments of upper descending thoracic aorta were frozen in OCT compound. […] Molecular Probes). Images were obtained on a confocal microscope (Bio-Rad MRC-1024 laser; filter settings: excitation filter 488 nm; emission filter 550 nm). 2-hydroxyethidium fluorescence was measured from high power (60× mag) images. Endothelium by quantifying fluorescence (intensity×area) on the luminal side of the internal elastic lamina, media between the internal and external elastic lamina, and adventitia outside the external elastic lamina. Quantification was performed using Image Pro Plus software (Media Cybernetics, Silver Springs, Md.). Medial Analysis was performed blind to the samples identity.

Question: With “angiotensin II (DRVYIHPF) [AngII, peptide infused to promote vascular disease and heart failure; AT1R ligand, reference compound]” as the compound, how does the “reporter transcription (NFκB, NFAT, AP-1, SRE)” value [1] read?
Answer: significant increase

Question: What about the AT1R-APJ receptor heterodimerization [2] of the same compound?
Answer: significantly enhanced

Question: What about the “animals with aneurysm formation” value (ApoE-KO mice [3]; AngII for four weeks) of the same compound?
Answer: 11/12

Question: What about the “incidence of AAA formation within 4 weeks” value (ApoE-KO mice [3]; single agent infusion) of the same compound?
Answer: 92%

Question: And the “increase of descending aorta atherosclerosis vs saline treated controls” value (ApoE-KO mice [4]; AngII 1.4 mg/kg/day, 4 week minipump infusion)?
Answer: 82%

Question: What about the “progression of atherosclerosis in aortic root (FIG. 17)” value (ApoE-KO mice [4]; osmotic minipump during high fat diet exposure) of the same compound?
Answer: do not alter

Question: What about the “competition for binding of FAM-AngII (10 nM) to AT1R” value (AT1R) of the same compound?
Answer: competes

Question: And the “binding to APJ” value (APJ [5])?
Answer: does not bind

Question: What about the “increase in total chemiluminescence (superoxide)” value ([6]; AngII infusion) of the same compound?
Answer: 10 fold

Question: What about the “increase of vein graft wall area vs saline treated controls” value (ApoE-KO mice [7]) of the same compound?
Answer: 33%

Question: Which Ejection fraction (C57B/16 mice) does the source give for “H-Arg-Pro-Arg-Leu-Ser-His-Lys-Gly-Pro-Met-Pro-Phe-OH [apelin-12]” here?
Answer: upward trend

Question: What about the “heart rate (inverse of R-R interval of electrocardiogram)” value (C57B/16 mice) of the same compound?
Answer: significant increase

Question: And the “left ventricular end diastolic area” value (C57B/16 mice)?
Answer: significant reduction; also recorded: significantly decreased

Question: What about the “activation of APJ” value (APJ [8]) of the same compound?
Answer: activate APJ

Question: Which “activation of APJ” value (APJ [8]) does the source give for “H-Leu-Val-Gln-Pro-Arg-Gly-Ser-Arg-Asn-Gly-Pro-Gly-Pro-Trp-Gln-Gly-Gly-Arg Arg-Lys-Phe-Arg-Arg-Gln-Arg-Pro-Arg-Leu-Ser-His-Lys-Gly-Pro-Met-Pro-Phe-OH (H-LVQPRGSRNGPGPWQGGRRKFRRQRPRLSHKGPMPF-OH; listed as Homo sapiens) [apelin-36]” here?
Answer: activate APJ

Question: What does the source list for `COc1cc(C(C)=O)ccc1O` [apocynain]?
Answer: total medial fluorescence after incubation with NADPH oxidase inhibitor ([9]; aortic sections from apelin treated mice): did not find this effect; total medial fluorescence after incubation with NADPH oxidase inhibitor ([9]; aortic sections from saline, AngII and apelin+AngII treated mice, 50 μmol/l): dramatically reduced; also recorded: blocked

Question: For apelin-17, which “activation of APJ” value (APJ [8]) is on record?
Answer: activate APJ

Question: For `COC(=O)[C@@H](N)CCCNC(=N)N[N+](=O)[O-]` [L-NAME], which “increase in total superoxide production on incubation with L-NAME” value ([6]; aorta from apelin treated mice, L-NAME 1 mmol/L) is on record?
Answer: 2 fold

Question: What about the “total superoxide levels on incubation with L-NAME” value ([6]; aorta from saline, AngII or AngII+apelin treated animals, L-NAME 1 mmol/L) of the same compound?
Answer: not significantly different
